Measured values as given in patent US20250092015A1, “A 6-substituted Chiral Pure Difluoropiperidine Quinazoline Derivative And Its Preparation Method” (WEISHANG (SHANGHAI) BIO-PHARMACEUTICAL CO., LTD., priority 2022, published 2025).
pIC50: −log10 of the molar value. Like-named read-outs stand apart in the source and are kept apart here.

Key:
[1] = Rate of crossing blood-brain barrier in rats; assay type: in vivo; conditions: 4 h after administration
Method: To determine whether (R)-6-((3,3-difluoro-1-methylpiperidin-4-yl)oxy)-N-(3-ethynyl-2-fluorophenyl)-7-methoxyquinazoline-4-amine prepared by the present disclosure is able to cross the blood-brain barrier (BBB), the test compound was administered to rats. After 4 h of administration, the rats were killed and blood and brain tissues were collected to test the compound concentration. Brain osmosis is defined as the ratio of the concentration of compounds in brain tissue to the concentration in plasma. The rate of crossing blood-brain barrier is the ratio of free drug concentration in brain tissue to free drug concentration in plasma. P-glycoprotein is an efflux protein at the blood-brain barrier that excretes P-glycoprotein substrate from the brain. Breast cancer resistance protein is an efflux protein at the blood-brain barrier that excretes […].

[2] = test system: Human glioma tumor cell with EGFRVIII mutation; experiment: CellTiter-Glo (CTG) cell viability, glioma cells; assay type: cell-based; conditions: 72 h of drug addition, read-out: Growth inhibition IC50, human glioma tumor cell with EGFRVIII mutation
Method: (§1) Cell viability of tumor cells and gliomas with EGFR-activated mutant (Exon 19 Del, PC-9 cell; Exon 21 L858R, H3255 cell) protein was detected using CellTiter-Glo (CTG) assay; approximately 5000 cells were placed in each blank of the 96-well plate. The diluted compound was added proportionally after 16 h and equilibrated at room temperature for 30 min after 72 h of drug addition. 100 µL of CellTiter-Glo reagent was added to each well and mixed well on an orbital shaker for 2 min to induce cell lysis. The plate was incubated at room temperature for 10 min to stabilize the luminous signal. The luminous signal was recorded on a TECAN Infinite M1000 Pro instrument.

EGFR enzyme = EGFR enzyme (Homo sapiens, UniProt P00533); experiment: EGFR enzyme ADP-Glo mechanism of action study (ATP titration); assay type: biochemical; conditions: PolyE4Y1 substrate, ATP diluted from 600 uM, FIG. 4
Method: In the study of the mechanism of action of (R)-6-((3,3-difluoro-1-methylpiperidin-4-yl)oxy)-N-(3-ethynyl-2-fluorophenyl)-7-methoxyquinazoline-4-amine prepared by the present disclosure to inhibit EGFR, EGFR enzyme was added to a solution of PolyE4Y1 on a 384-well plate from 6 concentrations diluted at an equal ratio of 0.4 nM (2-fold) to 0.0125 nM and 0 concentration, and incubated for 15 min. ATP was added at 7 concentrations diluted at an equal ratio of 600 uM (2-fold) for reaction for 60 min, and then ADP-Glo reagent and detection reagent were added for 40 min to measure RLU signal. […] The benefits of this mechanism of action are obvious, with minimal side effects and anti-drug resistance.

[3] = test system: PC-9 tumor cell (EGFR Del 19 mutation); experiment: CellTiter-Glo (CTG) cell viability, PC-9 cells; assay type: cell-based; conditions: Homo sapiens, 72 h of drug addition, read-out: Growth inhibition IC50, PC-9 tumor cell (EGFR Del 19 mutation)
Method: as §1

[4] = Pharmacokinetic study of rats (bioavailability); assay type: in vivo; conditions: rat, blood, 1-2 mg/kg iv vs 2-40 mg/kg PO
Method: In the pharmacokinetic study of rats, Group 1 (3 rats) was administrated with 1-2 mg/kg, iv, and Group 2 (3 rats) was administrated with 2-40 mg/kg, PO. Blood was sampled at 7 time points (0.25, 0.5, 1, 2, 4, 8 and 16 hours points) to measure the concentration of the quinazoline derivatives (I) prepared by the present disclosure in blood and calculate the peak area and half-life. Bioavailability is calculated as (peak area of oral drug/oral dose)/(peak area of intravenous drug/intravenous dose)×100%.

[5] = target: T1, Breast cancer resistance protein (Homo sapiens, UniProt Q9UNQ0); experiment: Breast cancer resistance protein efflux substrate test; assay type: in vitro ADME
T1 sequence (Q9UNQ0 1-655): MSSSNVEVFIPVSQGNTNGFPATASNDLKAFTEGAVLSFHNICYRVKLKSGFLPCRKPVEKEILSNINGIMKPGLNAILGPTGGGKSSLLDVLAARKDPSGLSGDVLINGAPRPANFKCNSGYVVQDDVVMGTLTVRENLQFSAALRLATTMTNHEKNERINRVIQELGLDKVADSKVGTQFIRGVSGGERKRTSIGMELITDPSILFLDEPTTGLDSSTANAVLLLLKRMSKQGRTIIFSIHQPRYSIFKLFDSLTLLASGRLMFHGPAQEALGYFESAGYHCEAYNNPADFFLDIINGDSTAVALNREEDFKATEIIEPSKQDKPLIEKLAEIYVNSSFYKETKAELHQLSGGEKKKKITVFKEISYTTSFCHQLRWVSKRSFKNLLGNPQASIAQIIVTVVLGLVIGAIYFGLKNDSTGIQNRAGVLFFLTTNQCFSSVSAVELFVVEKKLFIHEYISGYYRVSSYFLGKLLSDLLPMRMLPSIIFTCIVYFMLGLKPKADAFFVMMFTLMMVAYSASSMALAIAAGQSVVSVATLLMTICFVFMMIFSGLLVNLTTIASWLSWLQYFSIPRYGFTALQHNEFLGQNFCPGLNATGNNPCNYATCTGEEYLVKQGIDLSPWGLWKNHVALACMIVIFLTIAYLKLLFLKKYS

[6] = test system: patient's primary tumor tissue GBM (EGFRV3 mutated brain tumor); experiment: Survival in mouse intracranial PDX model; assay type: in vivo, mice; conditions: 30 mg/kg, PO, BID, treatment more than 50 d, FIG. 2
Method: The patient's primary tumor tissue GBM (brain tumor, about 50,000 cells) was seeded into the brain of mice. Administration began after the tumor grew for about 10 d and treatment lasted for more than 50 d. In the pharmacodynamic study of tumor transplanted animal model with EGFRV3 mutated brain tumor from patient's primary tumor tissue in mice, Group 1 was the control group (8 mice) without any medication. Group 2 received (R)-6-((3,3-difluoro-1-methylpiperidin-4-yl)oxy)-N-(3-ethynyl-2-fluorophenyl)-7-methoxyquinazoline-4-amine monotherapy group (8 mice), 30 mg/kg, PO, BID.

[7] = test system: H3255 tumor cell (EGFR L858R mutation); experiment: CellTiter-Glo (CTG) cell viability, H3255 cells; assay type: cell-based; conditions: Homo sapiens, NCI-H3255, 72 h of drug addition, read-out: Growth inhibition IC50, H3255 tumor cell (EGFR L858R mutation)
Method: as §1

[8] = test system: PC-9luc tumor cells (non-small cell lung cancer with Exon 19 Del); experiment: Survival in mouse model of intracranial meningeal metastasis; assay type: in vivo; conditions: PO, BID, PC-9luc seeded into brain of mice, FIG. 3
Method: PC-9luc tumor cells (non-small cell lung cancer with Exon 19 Del, about 2×10^5 cells) were seeded into the brain of mice, and administration was started approximately 11 days after tumor growth. Group 1 was the control group (8 mice), without any medication. Group 2 received Iressa (8 mice), 15 mg/kg, PO. Group 3 received (R)-6-((3,3-difluoro-1-methylpiperidin-4-yl)oxy)-N-(3-ethynyl-2-fluorophenyl)-7-methoxyquinazoline-4-amine monotherapy group (8 mice), 10 mg/kg, PO, BID. Group 4 received (R)-6-((3,3-difluoro-1-methylpiperidin-4-yl)oxy)-N-(3-ethynyl-2-fluorophenyl)-7-methoxyquinazoline-4-amine monotherapy group (8 mice), 3 mg/kg, PO, BID.

P-glycoprotein = P-glycoprotein (Homo sapiens, UniProt P08183); experiment: P-glycoprotein efflux substrate test; assay type: in vitro ADME
[9] = listed as -1-3,3-difluoro-1-methylpiperidin-4-yl)oxy)-N-(3-ethynyl-2-fluorophenyl)-7-metho

P-glycoprotein, sequence (P08183 whole entry): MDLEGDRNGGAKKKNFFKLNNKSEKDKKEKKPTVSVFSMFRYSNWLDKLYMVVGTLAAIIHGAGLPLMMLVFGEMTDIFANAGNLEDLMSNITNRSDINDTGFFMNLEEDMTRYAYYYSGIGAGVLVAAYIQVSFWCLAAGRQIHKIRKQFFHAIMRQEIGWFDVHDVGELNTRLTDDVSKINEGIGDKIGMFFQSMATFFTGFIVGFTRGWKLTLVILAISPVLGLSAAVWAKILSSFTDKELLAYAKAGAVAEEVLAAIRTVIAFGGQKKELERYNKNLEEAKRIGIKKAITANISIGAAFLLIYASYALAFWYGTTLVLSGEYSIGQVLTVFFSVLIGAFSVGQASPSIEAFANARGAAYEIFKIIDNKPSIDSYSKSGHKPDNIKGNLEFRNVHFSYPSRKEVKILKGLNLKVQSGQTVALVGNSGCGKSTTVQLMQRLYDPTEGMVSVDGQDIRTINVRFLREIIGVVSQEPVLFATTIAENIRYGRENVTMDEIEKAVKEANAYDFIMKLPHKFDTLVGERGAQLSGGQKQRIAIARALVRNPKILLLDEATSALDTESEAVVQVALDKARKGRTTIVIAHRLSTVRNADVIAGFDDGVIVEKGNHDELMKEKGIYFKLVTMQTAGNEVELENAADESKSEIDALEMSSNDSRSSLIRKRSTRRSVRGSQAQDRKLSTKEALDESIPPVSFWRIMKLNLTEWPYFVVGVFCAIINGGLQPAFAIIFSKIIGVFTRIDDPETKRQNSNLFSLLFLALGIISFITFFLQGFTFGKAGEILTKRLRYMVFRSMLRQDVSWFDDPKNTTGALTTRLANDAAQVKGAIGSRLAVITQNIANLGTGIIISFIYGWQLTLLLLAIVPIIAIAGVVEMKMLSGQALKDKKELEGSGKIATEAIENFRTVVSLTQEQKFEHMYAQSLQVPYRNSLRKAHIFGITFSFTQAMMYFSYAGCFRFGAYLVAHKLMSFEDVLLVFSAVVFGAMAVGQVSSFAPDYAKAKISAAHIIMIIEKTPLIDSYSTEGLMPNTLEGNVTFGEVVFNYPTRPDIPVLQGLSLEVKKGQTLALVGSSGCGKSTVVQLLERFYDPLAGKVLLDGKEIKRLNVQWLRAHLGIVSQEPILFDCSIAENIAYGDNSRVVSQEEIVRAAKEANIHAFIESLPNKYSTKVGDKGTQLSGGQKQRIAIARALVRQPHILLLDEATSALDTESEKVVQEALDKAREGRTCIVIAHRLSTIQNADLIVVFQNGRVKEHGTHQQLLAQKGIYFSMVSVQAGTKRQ
EGFR enzyme, sequence (P00533 25-1210): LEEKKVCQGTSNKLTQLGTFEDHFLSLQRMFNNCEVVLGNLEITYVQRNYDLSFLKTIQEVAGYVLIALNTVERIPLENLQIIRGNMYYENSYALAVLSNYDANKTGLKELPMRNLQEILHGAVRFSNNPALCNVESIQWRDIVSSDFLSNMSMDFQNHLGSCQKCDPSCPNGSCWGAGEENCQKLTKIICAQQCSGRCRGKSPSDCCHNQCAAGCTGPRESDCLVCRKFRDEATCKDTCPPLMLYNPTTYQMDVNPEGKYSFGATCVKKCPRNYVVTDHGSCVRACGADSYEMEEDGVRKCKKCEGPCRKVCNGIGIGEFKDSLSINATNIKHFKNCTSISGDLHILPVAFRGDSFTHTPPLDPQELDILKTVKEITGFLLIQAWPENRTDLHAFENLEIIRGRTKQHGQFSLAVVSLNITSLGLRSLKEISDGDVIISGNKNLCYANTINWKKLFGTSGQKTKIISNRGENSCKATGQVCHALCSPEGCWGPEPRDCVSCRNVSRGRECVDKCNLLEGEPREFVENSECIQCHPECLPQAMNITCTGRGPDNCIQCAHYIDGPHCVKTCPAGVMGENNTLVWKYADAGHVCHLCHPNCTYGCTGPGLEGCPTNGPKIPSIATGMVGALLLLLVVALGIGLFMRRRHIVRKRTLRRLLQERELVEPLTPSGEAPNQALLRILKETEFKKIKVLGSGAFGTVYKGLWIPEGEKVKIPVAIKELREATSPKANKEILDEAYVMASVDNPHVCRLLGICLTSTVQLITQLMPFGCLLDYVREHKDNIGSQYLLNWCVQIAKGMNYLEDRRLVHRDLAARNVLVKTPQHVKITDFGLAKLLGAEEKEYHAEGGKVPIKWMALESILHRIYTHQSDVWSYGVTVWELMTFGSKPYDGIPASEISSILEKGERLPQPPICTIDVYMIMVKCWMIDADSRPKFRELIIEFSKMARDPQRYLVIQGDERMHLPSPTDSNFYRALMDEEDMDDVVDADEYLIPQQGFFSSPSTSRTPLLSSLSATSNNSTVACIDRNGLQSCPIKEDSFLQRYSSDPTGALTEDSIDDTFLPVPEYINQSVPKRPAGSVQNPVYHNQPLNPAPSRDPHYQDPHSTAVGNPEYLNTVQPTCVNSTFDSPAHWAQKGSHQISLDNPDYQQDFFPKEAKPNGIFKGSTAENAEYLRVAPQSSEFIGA

C#Cc1cccc(Nc2ncnc3cc(OC)c(O[C@@H]4CCN(C)CC4(F)F)cc23)c1F [(R)-6-((3,3-difluoro-1-methylpiperidin-4-yl)oxy)-N-(3-ethynyl-2-fluorophenyl)-7-methoxyquinazoline-4-amine]
Rate of crossing blood-brain barrier (ratio of free drug concentration in brain tissue to free drug concentration in plasma) [1]: >50%
Kp at 4 h ([1]; rat, brain tissue and plasma (free drug concentrations), read-out: Rate of crossing blood-brain barrier (ratio of free drug concentration in brain tissue to free drug concentration in plasma)): > 0.5
pIC50 [2]: 8.00
Mechanism of action of EGFR inhibition (EGFR enzyme): non-ATP competitive
pIC50 [3]: 8.10
bioavailability [4]: > 35%
Breast cancer resistance protein efflux substrate [5]: No
Breast cancer resistance protein efflux substrate [5, 9]: not P-glycoprotein substrate or breast cancer resistance protein efflux substrate
Survival compared to control group [6]: significantly prolonged
pIC50 [7]: 8.70
Survival ([8]; Group 3, 10 mg/kg): significantly improved
Survival ([8]; Group 4, 3 mg/kg): significantly improved
P-glycoprotein efflux substrate (P-glycoprotein): No
P-glycoprotein efflux substrate (P-glycoprotein; [9]): not P-glycoprotein substrate
